Laboratory results taken from patent US10035777B2, “Heterocyclic kinase inhibitors” (priority 2014, dated 2018).
Read-outs that look alike come from different tables or passages of the source.

Biological target: GST-Xa-hAAK1 (Homo sapiens (Human), UniProt Q2M2I8)
Test: biochemical
Experimental: The assays were performed in U-bottom 384-well plates. […] The reactions were initiated by the combination of bacterially expressed, GST-Xa-hAAK1 with substrates and test compounds. The reactions were incubated at room temperature for 3 hours and terminated by adding 60 μl of 35 mM EDTA buffer to each sample. The reactions were analyzed on the Caliper LabChip 3000 (Caliper, Hopkinton, Mass.) by electrophoretic separation of the fluorescent substrate and phosphorylated product. […] Compounds were dissolved at 10 mM in dimethylsulfoxide (DMSO) and evaluated at eleven concentrations. IC50 values were derived by non-linear regression analysis.

[1] = ATP 22 μM, GST-Xa-hAAK1 3.5 nM, room temperature for 3 hours, Caliper LabChip 3000, read-out: AAK1 IC50

Chain of GST-Xa-hAAK1 (Q2M2I8 whole entry): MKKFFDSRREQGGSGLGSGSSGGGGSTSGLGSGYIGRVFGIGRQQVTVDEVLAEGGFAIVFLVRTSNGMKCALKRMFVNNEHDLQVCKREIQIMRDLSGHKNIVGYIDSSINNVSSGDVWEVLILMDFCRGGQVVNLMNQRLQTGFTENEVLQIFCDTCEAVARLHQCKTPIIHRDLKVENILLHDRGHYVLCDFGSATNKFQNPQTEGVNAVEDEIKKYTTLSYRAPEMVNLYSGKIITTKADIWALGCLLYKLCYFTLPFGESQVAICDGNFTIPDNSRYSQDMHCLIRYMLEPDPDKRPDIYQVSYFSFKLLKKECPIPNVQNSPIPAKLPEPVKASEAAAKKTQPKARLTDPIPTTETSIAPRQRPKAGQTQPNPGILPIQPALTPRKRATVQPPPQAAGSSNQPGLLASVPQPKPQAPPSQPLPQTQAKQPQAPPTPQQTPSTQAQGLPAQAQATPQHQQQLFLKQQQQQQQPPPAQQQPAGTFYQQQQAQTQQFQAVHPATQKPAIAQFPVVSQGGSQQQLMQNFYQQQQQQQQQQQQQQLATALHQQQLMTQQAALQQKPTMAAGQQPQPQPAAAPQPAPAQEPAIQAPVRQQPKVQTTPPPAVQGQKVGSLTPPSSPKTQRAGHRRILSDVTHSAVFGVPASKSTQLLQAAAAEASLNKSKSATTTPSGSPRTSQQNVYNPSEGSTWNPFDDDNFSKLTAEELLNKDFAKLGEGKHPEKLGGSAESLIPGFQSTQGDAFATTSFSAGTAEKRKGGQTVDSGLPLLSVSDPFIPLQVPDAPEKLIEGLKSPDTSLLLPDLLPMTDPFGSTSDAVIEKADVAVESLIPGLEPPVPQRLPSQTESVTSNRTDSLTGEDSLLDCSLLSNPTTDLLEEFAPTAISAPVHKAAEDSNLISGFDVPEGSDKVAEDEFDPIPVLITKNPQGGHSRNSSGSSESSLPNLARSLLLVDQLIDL

`CC(C)CC(N)c1nc2ccc(-c3ccncc3)cc2o1` (stereo not shown) [Example 84, 3-methyl-1-(6-(pyridin-4-yl)benzo[d]oxazol-2-yl)butan-1-amine] gave an IC50 [1] of 438 nM.

Work on `CN[C@H](CC(C)C)c1nc2cc(-c3ccncc3)ccc2[nH]1` [Example 62, N,3-dimethyl-1-(5-(pyridin-4-yl)-1H-benzo[d]imidazol-2-yl) butan-1-amine] yielded an IC50 of 12 nM.

In the case of `CCn1c([C@H](N)CC(C)C)nc2cc(-c3cnco3)ccc21` [Example 46, (R)-1-(1-ethyl-5-(oxazol-5-yl)-1H-benzo[d]imidazol-2-yl)-3-methylbutan-1-amine], the IC50 [1] is reported as 1540 nM.

`CC(C)CCc1nc2cc(-c3ccncc3)ccc2o1` [Example 89, 2-isopentyl-5-(pyridin-4-yl)benzo[d]oxazole] gave an IC50 [1] of 327 nM.

With `c1cc(-c2ccc3[nH]c(CC4CCCCC4)nc3c2)ccn1` [Example 72, 2-(cyclohexylmethyl)-5-(pyridin-4-yl)-1H-benzo[d]imidazole] the IC50 was 108 nM.

With `CC(C)CC(N)c1nc2ccc(-c3ccncc3)cc2s1` (stereo not shown) [Example 98, 3-methyl-1-(6-(pyridin-4-yl)benzo[d]thiazol-2-yl)butan-1-amine] the IC50 was 44 nM.

Molecule `N[C@H](CC1CC1)c1nc2cc(-c3ccncc3)ccc2[nH]1` [Example 70, (R)-2-cyclopropyl-1-(5-(pyridin-4-yl)-1H-benzo[d]imidazol-2-yl) ethanamine] has an IC50 of 61 nM.

`CC(C)CC(CN)c1nc2cc(-c3cnco3)ccc2[nH]1` (stereo not shown) [Example 65, 4-methyl-2-(5-(oxazol-5-yl)-1H-benzo[d]imidazol-2-yl)pentan-1-amine] showed an IC50 [1] of 26 nM.

For `CC(C)C[C@@H](N)c1nc2cc(-c3ccnc(N(C)C)n3)ccc2[nH]1` [Example 14, (R)-4-(2-(1-amino-3-methylbutyl)-1H-benzo[d]imidazol-5-yl)-N,N-dimethylpyrimidin-2-amine], the IC50 [1] was 198 nM.

Work on `COc1cc2[nH]c(C(N)CC3CCCC3)nc2cc1-c1cnco1` (stereo not shown) [Example 71, 2-cyclopentyl-1-(6-methoxy-5-(oxazol-5-yl)-1H-benzo[d]imidazol-2-yl)ethanamine] yielded an IC50 of 70 nM.

`c1cc(-c2ccc3oc(CCC4CCCC4)nc3c2)ccn1` [Example 92, 2-(2-cyclopentylethyl)-5-(pyridin-4-yl)benzo[d]oxazole] showed an IC50 [1] of 1700 nM.

With `Cn1nc(C(C)(C)C)cc1-c1nc2ccc(-c3ccncc3)cc2[nH]1` [Example 50, 2-(3-(tert-butyl)-1-methyl-1H-pyrazol-5-yl)-6-(pyridin-4-yl)-1H-benzo[d]imidazole] the IC50 was 1730 nM.

`COc1cc(-c2ccncc2)cc2nc([C@H](N)CC(C)C)[nH]c12` [Example 22, (R)-1-(7-methoxy-5-(pyridin-4-yl)-1H-benzo[d]imidazol-2-yl)-3-methylbutan-1-amine] showed an IC50 of 52 nM.

In the case of `CC(C)C[C@H](N)c1nc2ccc(-c3ccncc3)cc2[nH]1` [Example 2, (S)-3-methyl-1-(6-(pyridin-4-yl)-1H-benzo[d]imidazol-2-yl)butan-1-amine], the IC50 [1] is reported as 53 nM.

Work on `CC(C)OCc1nc2ccc(-c3ccncc3)cc2[nH]1` [Example 54, 2-(isopropoxymethyl)-6-(pyridin-4-yl)-1H-benzo[d]imidazole] yielded an IC50 of 785 nM.

`CC(C)N1CC(c2nc3ccc(-c4ccncc4)cc3[nH]2)CC1=O` (stereo not shown) [Example 51, 1-isopropyl-4-(6-(pyridin-4-yl)-1H-benzo[d]imidazol-2-yl)pyrrolidin-2-one] showed an IC50 of 783 nM.

In the case of `NC(CCC(F)(F)F)c1nc2ccc(-c3cnco3)cc2[nH]1` (stereo not shown) [Example 105, 4,4,4-trifluoro-1-(6-(oxazol-5-yl)-1H-benzo[d]imidazol-2-yl)butan-1-amine], the IC50 [1] is reported as 150 nM.

`CC(C)CC(C)(N)c1nc2ccc(-c3cnco3)cc2[nH]1` (stereo not shown) [Example 103, 4-methyl-2-(6-(oxazol-5-yl)-1H-benzo[d]imidazol-2-yl)pentan-2-amine] showed an IC50 [1] of 158 nM.

Molecule `CN[C@H](CC(C)C)c1nc2cc(-c3ccnnc3)ccc2[nH]1` [Example 109, (R)-N,3-dimethyl-1-(5-(pyridazin-4-yl)-1H-benzo[d]imidazol-2-yl)butan-1-amine] has an IC50 (read-out: AAK1 IC50) of 428 nM.

Work on `CCn1c([C@H](N)CC(C)C)nc2ccc(-c3cn[nH]c3)cc21` [Example 34, (R)-1-(1-ethyl-6-(1H-pyrazol-4-yl)-1H-benzo[d]imidazol-2-yl)-3-methylbutan-1-amine] yielded an IC50 [1] of 98 nM.

`CC(C)C[C@@H](N)c1nc2cc(-c3ccnc(C#N)c3)ccc2[nH]1` [Example 15, (R)-4-(2-(1-amino-3-methylbutyl)-1H-benzo[d]imidazol-5-yl)picolinonitrile] was tested, and the IC50 [1] was 289 nM.

For `COc1cc(-c2cc(OC)c3[nH]c([C@H](N)CC(C)C)nc3c2)ccn1` [Example 24, (R)-1-(7-methoxy-5-(2-methoxypyridin-4-yl)-1H-benzo[d]imidazol-2-yl)-3-methylbutan-1-amine], the IC50 [1] was 1590 nM.
